How the values were obtained:
MCF-7 cells = assay: MTT cytotoxicity assay, MCF-7; assay type: cell-based, human; conditions: MCF7; human breast cancer cell line; MTT, 48 h exposure; mean ± SD, three independent experiments
Protocol: (§1) All compounds were evaluated for their in vitro cytotoxic activity against five human cancer cell lines including human breast MCF-7, human breast MDA-MB-435, human lung A549, human liver HepG2 and human colon HCT-116, and compared with their effects on the immortalized human breast epithelial cell line MCF-10A by MTT assay using epirubicin (an anticancer drug used widely in the clinic) as positive control.
(§2) MCF-7, MDA-MB-435, A549, HepG2 and HCT-116 cells were cultured in Dulbecco’s modification Eagle’s medium (DMEM, Invitrogen, Carlsbad, CA, USA) supplemented with 10% fetal bovine serum (FBS, Hyclone, Logan, UT, USA), 2 mM L-glutamine, 100 μg/mL streptomycin and 100 U/mL penicillin (Invitrogen). MCF-10A cells were cultured in keratinocyte serum free medium (KSFM) supplemented with 0.1–0.2 ng/mL human recombinant epidermal growth factor and 20–30 μg/mL bovine pituitary extract (Invitrogen). The cells were incubated at 37 °C in a humidified atmosphere with 5% CO2.
(§3) Cells were harvested during logarithmic growth phase and seeded in 96-well plates at a density of 1 × 10^4 cells/mL, and cultured at 37 °C in a humidified incubator (5% CO2) for 24 h, followed by exposure to various concentrations of compounds tested for 48 h. Subsequently 20 μL of MTT (Genview, Houston, TX, USA) solution (5 mg/mL) was added to each well and mixed, the cells were then incubated for an additional 4 h. Culture supernatant was moved, 150 μL of DMSO (Sangon Biotech, Shanghai, China) was added to each well to fully dissolve the MTT-formazan crystals. Cell growth inhibition was determined by measuring the absorbance (Abs) at λ = 570 nm using a microplate reader and calculated according to the following equation:
(§4) Growth inhibition = (1 − OD of treated cells/OD of control cells) × 100%
(§5) The half maximal inhibitory concentrations (IC50) were obtained from liner regression analysis of the concentration-response curves plotted for each tested compound.

MDA-MB-435 cells = assay: MTT cytotoxicity assay, MDA-MB-435; assay type: cell-based, human; conditions: MDA-MB-435; human breast cancer cell line; MTT, 48 h exposure; mean ± SD, three independent experiments
Protocol: as §1, §2, §3, §4, §5

A549 cells = assay: MTT cytotoxicity assay, A549; assay type: cell-based, human; conditions: A549; human lung cancer cell line; MTT, 48 h exposure; mean ± SD, three independent experiments
Protocol: as §1, §2, §3, §4, §5

HepG2 cells = assay: MTT cytotoxicity assay, HepG2; assay type: cell-based, human; conditions: Homo sapiens, HepG2, 48 h, human liver cancer cell line; MTT, 48 h exposure; mean ± SD, three independent experiments
Protocol: as §1, §2, §3, §4, §5

HCT-116 cells = assay: MTT cytotoxicity assay, HCT-116; assay type: cell-based, human; conditions: HCT-116; human colon cancer cell line; MTT, 48 h exposure; mean ± SD, three independent experiments
Protocol: as §1, §2, §3, §4, §5

[1] = MTT cytotoxicity assay, MCF-10A; assay type: cell-based; conditions: MCF-10A cells, immortalized human breast epithelial cell line, 48 h exposure, mean ± SD, three independent experiments
Protocol: as §1, §2, §3, §4, §5

Row | melting point [°C] | SMILES | IC50 (MCF-7 cells) [µM] | IC50 (MDA-MB-435 cells) [µM] | IC50 (A549 cells) [µM] | IC50 (HepG2 cells) [µM] | IC50 (HCT-116 cells) [µM] | IC50 at 48 h [1] [µM]
1 | 224 to 225 | COC1=CC(=O)c2c(O)c3c(c(O)c2C1=O)C[C@](C)(O)[C@H](O)C3 [Compound 2, Deoxybostrycin] | 2.69 ± 0.31 | 3.19 ± 0.92 | 4.49 ± 0.13 | 9.99 ± 0.55 | 5.69 ± 0.25 | 13.8 ± 0.76
2 | > 300 | COC1=CC(=O)c2c(cc3c(c2O)C[C@@H](O)[C@@](C)(O)C3)C1=O [Compound 3, Nigrosporin B] | 6.19 ± 0.6 | 2.91 ± 0.18 | 4.72 ± 0.17 | 31 ± 0.71 | 4.7 ± 0.39 | 28.6 ± 0.91
3 | 228 to 229 | COC1=CC(=O)c2c(O)c3c(c(O)c2C1=O)C[C@]1(C)OC(C)(C)O[C@@H]1[C@H]3O [Compound 5, 2,3-O-(isopropylidene) Bostrycin] | 6.87 ± 0.33 | 5.96 ± 0.21 | 4.25 ± 0.16 | 37 ± 1.97 | 11 ± 1.35 | 18.1 ± 1.3
4 | 200 to 201 | COC1=CC(=O)c2c(O)c3c(c(O)c2C1=O)C[C@]1(C)OC(C=C(C)C)O[C@@H]1[C@H]3O (stereo partly drawn) [Compound 6, 2,3-O-(3′-methylbut-2′-enyl) Bostrycin] | 7.99 ± 0.09 | 11.7 ± 1.18 | 5.5 ± 0.24 | 22.3 ± 2.89 | 7.83 ± 0.32 | 34.1 ± 0.85
5 | 246 to 247 | COC1=CC(=O)c2c(O)c3c(c(O)c2C1=O)C[C@]1(C)OC(=O)O[C@@H]1[C@H]3O [Compound 8, 2,3-O-(carbonyl) Bostrycin] | 1.59 ± 0.16 | 1.26 ± 0.12 | 0.52 ± 0.02 | 3.32 ± 0.58 | 2.92 ± 0.06 | 21.7 ± 1.45
6 | 210 to 211 | CCCNC1=CC(=O)c2c(O)c3c(c(O)c2C1=O)C[C@](C)(O)[C@H](O)[C@H]3O [Compound 10, 6-(n-Propylamino)-6-demethoxybostrycin] | 14 ± 0.98 | > 50 | 21.5 ± 1.43 | 18 ± 0.6 | 26.4 ± 0.89 | > 50
7 | 236 to 237 | CCCCNC1=CC(=O)c2c(O)c3c(c(O)c2C1=O)C[C@](C)(O)[C@H](O)[C@H]3O [Compound 11, 6-(n-Butylamino)-6-demethoxybostrycin] | 1.08 ± 0.21 | > 50 | 25.1 ± 0.74 | 35.7 ± 1.29 | 36.5 ± 0.53 | > 50
8 | 203 to 204 | CCCCCCNC1=CC(=O)c2c(O)c3c(c(O)c2C1=O)C[C@](C)(O)[C@H](O)[C@H]3O [Compound 12, 6-(n-Hexylamino)-6-demethoxybostrycin] | 4.87 ± 0.23 | 4.25 ± 0.75 | 3.74 ± 0.67 | 12.9 ± 0.96 | 4.06 ± 0.65 | –
9 | 226 to 227 | C[C@]1(O)Cc2c(O)c3c(c(O)c2[C@H](O)[C@H]1O)C(=O)C=C(Nc1ccccc1)C3=O [Compound 15, 6-(Phenylamino)-6-demethoxybostrycin] | 3.72 ± 0.27 | 10.3 ± 0.45 | 4.87 ± 0.43 | > 50 | 4.84 ± 0.25 | 41.6 ± 0.51
10 | 199 to 200 | C[C@]1(O)Cc2c(O)c3c(c(O)c2[C@H](O)[C@H]1O)C(=O)C=C(N1CCCCC1)C3=O [Compound 20, 6-(Piperidin-1-yl)-6-demethoxybostrycin] | 3.14 ± 0.31 | 4.04 ± 0.35 | 3.16 ± 0.23 | 1.99 ± 0.17 | 2.81 ± 0.31 | –
11 | 162 to 163 | CC1CCN(C2=CC(=O)c3c(O)c4c(c(O)c3C2=O)C[C@](C)(O)[C@H](O)[C@H]4O)CC1 [Compound 21, 6-(4′-Methylpiperidin-1-yl)-6-demethoxybostrycin] | 4.62 ± 0.44 | 6.38 ± 0.47 | 3.06 ± 0.46 | 6.09 ± 1.14 | 3.25 ± 0.67 | –
12 | 221 to 222 | C[C@]1(O)Cc2c(O)c3c(c(O)c2[C@H](O)[C@H]1O)C(=O)C=C(N1CCC(c2ccccc2)CC1)C3=O [Compound 22, 6-(4′-Phenylpiperidin-1-yl)-6-demethoxybostrycin] | 4.81 ± 0.4 | 0.95 ± 0.13 | 0.76 ± 0.03 | 6.61 ± 1.12 | 0.75 ± 0.05 | –
13 | 146 to 147 | CC1SC2=C(SC1C)C(=O)c1c(O)c3c(c(O)c1C2=O)C[C@](C)(O)[C@H](O)[C@H]3O (stereo partly drawn) [Compound 29, 6,7-(Butan-2′,3′-yl-dithio)-6-demethoxybostrycin] | 3.18 ± 0.22 | 0.55 ± 0.11 | 4.06 ± 0.35 | 2.55 ± 0.55 | 0.73 ± 0.02 | –

The next lines start with the compound.

Row | SMILES | melting point [°C] | IC50 (MCF-7 cells) [µM] | IC50 (MDA-MB-435 cells) [µM] | IC50 (A549 cells) [µM] | IC50 (HepG2 cells) [µM] | IC50 (HCT-116 cells) [µM] | IC50 at 48 h [1] [µM]
14 | COC1=CC(=O)c2c(O)c3c(c(O)c2C1=O)C[C@](C)(O)[C@H](O)[C@H]3O [Compound 1, Bostrycin] | – | 2.18 ± 0.14 | 2.82 ± 0.17 | 2.63 ± 0.33 | 7.71 ± 0.72 | 4.78 ± 0.03 | 14.1 ± 0.58
15 | COC1=CC(=O)c2c(O)c3c(c(O)c2C1=O)C[C@]1(C)OCO[C@@H]1[C@H]3OCO [Compound 7, 1-O-(hydroxymethyl)-2,3-O-(methylene) Bostrycin] | 233 to 234 | 2.52 ± 0.26 | 4.25 ± 0.57 | 0.78 ± 0.04 | 4.58 ± 0.5 | 3.06 ± 0.1 | 4.79 ± 0.52
16 | CNC1=CC(=O)c2c(O)c3c(c(O)c2C1=O)C[C@](C)(O)[C@H](O)[C@H]3O [Compound 9, 6-(Methylamino)-6-demethoxybostrycin] | – | 3.58 ± 0.65 | > 50 | 31.1 ± 1.94 | 22.4 ± 1.16 | 34.2 ± 1.27 | > 50
17 | C[C@]1(O)Cc2c(O)c3c(c(O)c2[C@H](O)[C@H]1O)C(=O)C=C(NCCO)C3=O [Compound 13, 6-(2′-Hydroxyethylamino)-6-demethoxybostrycin] | 202 to 203 | 35.6 ± 1.4 | > 50 | > 50 | 32.2 ± 2.43 | 35.9 ± 1.13 | > 50
18 | C[C@]1(O)Cc2c(O)c3c(c(O)c2[C@H](O)[C@H]1O)C(=O)C=C(NCCOCCO)C3=O [Compound 14, 6-[(2″-Hydroxyethoxy)ethylamino]-6-demethoxybostrycin] | 112 to 113 | > 50 | > 50 | > 50 | > 50 | > 50 | > 50
19 | COc1ccc(NC2=CC(=O)c3c(O)c4c(c(O)c3C2=O)C[C@](C)(O)[C@H](O)[C@H]4O)cc1 [Compound 16, 6-(p-Methoxyphenylamino)-6-demethoxybostrycin] | 202 to 203 | 39.4 ± 0.68 | 36.4 ± 2.08 | 41.4 ± 2.86 | 30.3 ± 1.63 | 43.3 ± 1.56 | –
20 | C[C@]1(O)Cc2c(O)c3c(c(O)c2[C@H](O)[C@H]1O)C(=O)C=C(NCc1ccccc1)C3=O [Compound 17, 6-(Benzylamino)-6-demethoxybostrycin] | 153 to 154 | 28.7 ± 2.37 | 40.4 ± 1.49 | 21.3 ± 2.02 | > 50 | 20.6 ± 0.37 | 19.8 ± 0.63
21 | C[C@]1(O)Cc2c(O)c3c(c(O)c2[C@H](O)[C@H]1O)C(=O)C(SCCO)=C(SCCO)C3=O [Compound 26, 6,7-bis(2′-Hydroxyethylthio)-6-demethoxybostrycin] | 156 to 158 | 14.4 ± 0.42 | 13.3 ± 0.2 | 26.1 ± 3.15 | 22.7 ± 1.95 | 12 ± 1.53 | –
22 | C[C@]1(O)Cc2c(O)c3c(c(O)c2[C@H](O)[C@H]1O)C(=O)C(SCCCO)=C(SCCCO)C3=O [Compound 27, 6,7-bis(3′-Hydroxy-n-propylthio)-6-demethoxybostrycin] | 150 to 151 | 6.01 ± 0.39 | 3.19 ± 0.15 | 7.31 ± 0.58 | 3.18 ± 0.75 | 3.08 ± 0.35 | –
23 | COc1cccc2c1C(=O)c1c(O)c3c(c(O)c1C2=O)C[C@@](O)(C(=O)CO)C[C@@H]3O[C@H]1C[C@H](N)[C@@H](O)[C@H](C)O1 [epirubicin, reference compound] | – | 0.96 ± 0.08 | 0.56 ± 0.06 | 0.61 ± 0.05 | 0.96 ± 0.02 | 0.48 ± 0.03 | 0.48 ± 0.08

Source: article PMC3366684, “Studies on the Synthesis of Derivatives of Marine-Derived Bostrycin and Their Structure-Activity Relationship against Tumor Cells” (Marine Drugs, 2012)
